According to ChEMBL document CHEMBL4400555, “Structure-activity relationships of trichothecenes against COLO201 cells and Cochliobolus miyabeanus: The role of 12-epoxide and macrocyclic moieties” (Bioorg Med Chem Lett, 2019):
Calls of active or inactive are those of the source. The calls are words filed in the database; no cut-off is given here.

Tests used:
COLO 201 = assay: Antiproliferative activity against human COLO201 cells after 24 hrs by WST-1 assay; format: functional, cell-based
Bipolaris oryzae [1] = assay: Antifungal activity against Cochliobolus miyabeanus 131004 assessed as zone of inhibition at 10 ug/disk after 4 days by paper disk method; format: functional; conditions: Bipolaris oryzae, 131004, 96 h; read-out: IZ
Bipolaris oryzae [2] = assay: Antifungal activity against Cochliobolus miyabeanus 131004 assessed as zone of inhibition at 50 ug/disk after 4 days by paper disk method; format: functional, organism-based
Bipolaris oryzae [3] = assay: Antifungal activity against Cochliobolus miyabeanus 131004 assessed as zone of inhibition at 500 ug/disk after 4 days by paper disk method; format: functional; conditions: Bipolaris oryzae, 131004, 96 h; read-out: IZ
Bipolaris oryzae [4] = assay: Antifungal activity against Cochliobolus miyabeanus 131004 assessed as zone of inhibition at 100 ug/disk after 4 days by paper disk method; format: functional; conditions: Bipolaris oryzae, 131004, 96 h; read-out: IZ

CC(=O)O[C@@H]1C[C@H]2O[C@@H]3C=C(C)CC[C@]3(C)[C@]1(C)[C@]21CO1
IC50 (COLO 201; colo 201): 123 µM

CC1=C[C@H]2O[C@@H]3C[C@H]4OC(=O)/C=C\C=C\[C@@H]5O[C@@H](O[C@H]5C)[C@H](O)/C(C)=C/C(=O)OC[C@@]2(CC1)[C@]4(C)[C@]31CO1
IC50 (COLO 201; colo 201): 42 µM

CC1=C[C@H]2O[C@@H]3[C@H](O)C[C@](C)([C@@]2(CO)[C@H](O)C1=O)[C@]31CO1 [DEOXYNIVALENOL]
IC50 (COLO 201; colo 201): 86 µM

C=C1[C@H]2CC[C@]1(C)[C@@]1(CO)[C@H](O)C(=O)C(C)=C[C@H]1O2
IC50 (COLO 201; Homo sapiens, COLO 201, 24 h): > 700 µM | zone of inhibition at 10 µg/disc (Bipolaris oryzae [1]): 0 mm | inhibition zone (IZ) (Bipolaris oryzae [2]): inactive

CC(=O)O[C@H]1C[C@@]23COC(=O)/C=C(\C)C[C@@H]4O[C@@H](C)[C@H](/C=C/C=C\C(=O)O[C@@H]5C[C@@H](O[C@@H]2C=C1C)[C@@]1(CO1)[C@]53C)O4
IC50 (COLO 201; colo 201): 46 µM

CC1=C[C@H]2O[C@@H]3C[C@H]4OC(=O)/C=C\C=C\[C@@H]5O[C@H](C/C(C)=C/C(=O)OC[C@@]2(C[C@@H]1O)[C@]4(C)[C@]31CO1)O[C@H]5C
IC50 (COLO 201; colo 201): 51 µM

CC1=C[C@H]2O[C@@H]3C[C@H]4OC(=O)/C=C\C=C\[C@@H]([C@@H](C)O)OCC/C(C)=C/C(=O)OC[C@@]2(CC1)[C@]4(C)[C@]31CO1
IC50 (COLO 201; colo 201): 47 µM

C=C1[C@H]2C[C@H]3OC(=O)/C=C\C=C\[C@@H]([C@@H](C)O)OCC/C(C)=C/C(=O)OC[C@@]4(CCC(C)=C[C@H]4O2)[C@]13C
IC50 (COLO 201; Homo sapiens, COLO 201, 24 h): 51 µM | zone of inhibition at 500 µg/disc (Bipolaris oryzae [3]): 0 mm | zone of inhibition at 100 µg/disc (Bipolaris oryzae [4]): 0 mm | zone of inhibition at 10 µg/disc (Bipolaris oryzae [1]): 0 mm

C=C1[C@H]2C[C@@H](OC(C)=O)[C@]1(C)[C@@]1(C)CCC(C)=C[C@H]1O2
IC50 (COLO 201; Homo sapiens, COLO 201, 24 h): 420 µM | zone of inhibition at 500 µg/disc (Bipolaris oryzae [3]): 0 mm | zone of inhibition at 100 µg/disc (Bipolaris oryzae [4]): 0 mm | zone of inhibition at 10 µg/disc (Bipolaris oryzae [1]): 0 mm

C=C1[C@H]2C[C@H]3OC(=O)/C=C\C=C\[C@@H]4O[C@@H](O[C@H]4C)[C@H](O)/C(C)=C/C(=O)OC[C@@]4(CCC(C)=C[C@H]4O2)[C@]13C
IC50 (COLO 201; Homo sapiens, COLO 201, 24 h): 50 µM | zone of inhibition at 500 µg/disc (Bipolaris oryzae [3]): 0 mm | zone of inhibition at 100 µg/disc (Bipolaris oryzae [4]): 0 mm | zone of inhibition at 10 µg/disc (Bipolaris oryzae [1]): 0 mm

CC1=C[C@H]2O[C@@H]3C[C@H]4OC(=O)/C=C\C=C\[C@@H]5O[C@H](C/C(C)=C/C(=O)OC[C@@]2(CC1)[C@]4(C)[C@]31CO1)O[C@H]5C
IC50 (COLO 201; colo 201): 82 µM
